# Experimental data from PubChem BioAssay (NCI).
#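 Tested at 5 concentrations; 48 h exposure; 96-well plates; endpoints linearly interpolated, else capped at highest concentration. TGI marks complete inhibition of growth.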
# Key:
# Assay in all cases: DTP human tumour cell line panel, 48 h
# [1] = system: XF 498 CNS
# [2] = system: M19-MEL melanoma
# [3] = system: U251 CNS
# [4] = system: UO-31 renal
# [5] = system: DMS 273 small cell lung
# [6] = system: A549 NSCLC
# [7] = system: HT29 colon
# [8] = system: LOX IMVI melanoma
# [9] = system: OVCAR-8 ovarian
# [10] = system: SF-295 CNS
# [11] = system: SF-539 CNS
# [12] = system: HCT-15 colon
# [13] = system: DLD-1 colon
# [14] = system: NCI-H226 lung
# [15] = system: RXF-631 renal
# [16] = system: OVCAR-4 ovarian
# [17] = system: NCI-H522 lung
# [18] = system: KM20L2 colon
# [19] = system: ACHN renal
# [20] = system: SNB-75 CNS
# [21] = system: UACC-257 melanoma
# [22] = system: LXFL 529 NSCLC
# [23] = system: HL-60(TB) leukemia
# [24] = system: TK-10 renal
# [25] = system: A498 renal
# [26] = system: EKVX NSCLC
# [27] = system: SK-MEL-28 melanoma
# [28] = system: SW-620 colon
# [29] = system: UACC-62 melanoma
# [30] = system: HOP-62 NSCLC
# [31] = system: SK-OV-3 ovarian
# [32] = system: DMS 114 small cell lung
# [33] = system: HCC-2998 colon
# [34] = system: NCI-H460 lung
# [35] = system: OVCAR-3 ovarian
# [36] = system: HOP-92 NSCLC
# [37] = system: M14 melanoma
# [38] = system: SNB-78 CNS
# [39] = system: RXF 393 renal
# [40] = system: 786-0 renal
# [41] = system: OVCAR-5 ovarian
# [42] = system: HCT-116 colon
# [43] = system: NCI-H23 lung
# [44] = system: KM12 colon
# [45] = system: SK-MEL-2 melanoma
# [46] = system: IGROV1 ovarian
# [47] = system: HOP-18 NSCLC
# [48] = system: SN12C renal
# [49] = system: SF-268 CNS
# [50] = system: SK-MEL-5 melanoma
# [51] = system: MALME-3M melanoma
# [52] = system: CCRF-CEM leukemia
# [53] = system: SNB-19 CNS
# [54] = system: COLO 205 colon
structure (smiles),measurement,setting,value
CCCCCCCCCCCCCCNCC(OC)OC,TGI,[1],31.7 µM
same,TGI,[2],32.3 µM
same,TGI,[3],31.6 µM
same,TGI,[4],25.7 µM
same,TGI,[5],33 µM
same,TGI,[6],35.3 µM
same,TGI,[7],14.3 µM
same,TGI,[8],33.5 µM
same,TGI,[9],44.3 µM
same,TGI,[10],34.1 µM
same,TGI,[11],30.9 µM
same,TGI,[12],25.7 µM
same,TGI,[13],28.6 µM
same,TGI,[14],34.4 µM
same,TGI,[15],31.2 µM
same,TGI,[16],30.1 µM
same,TGI,[17],34.2 µM
same,TGI,[18],28.8 µM
same,TGI,[19],31.1 µM
same,TGI,[20],26.9 µM
same,TGI,[21],37.5 µM
same,TGI,[22],30 µM
same,TGI,[23],23 µM
same,TGI,[24],32.9 µM
same,TGI,[25],35 µM
same,TGI,[26],34.2 µM
same,TGI,[27],30.4 µM
same,TGI,[28],33.2 µM
same,TGI,[29],34.4 µM
same,TGI,[30],31.8 µM
same,TGI,[31],33.1 µM
same,TGI,[32],29.3 µM
same,TGI,[33],33.4 µM
same,TGI,[34],34.1 µM
same,TGI,[35],32.6 µM
same,TGI,[36],23.9 µM
same,TGI,[37],27.4 µM
same,TGI,[38],34.3 µM
same,TGI,[39],28.9 µM
same,TGI,[40],31 µM
same,TGI,[41],27.8 µM
same,TGI,[42],26 µM
same,TGI,[43],36.8 µM
same,TGI,[44],26.7 µM
same,TGI,[45],30.9 µM
same,TGI,[46],32.3 µM
same,TGI,[47],26.4 µM
same,TGI,[48],30.9 µM
same,TGI,[49],39.4 µM
same,TGI,[50],29.3 µM
same,TGI,[51],35.3 µM
same,TGI,[52],36.4 µM
same,TGI,[53],33.8 µM
same,TGI,[54],28.3 µM
